Measurements as given in the supplement of paper PMC8671470.

These molecules were tested on myeloid leukemia patient primary cells Pat.8 (assay: cell viability (% survival relative to DMSO control); higher = less cytotoxic). Details: 100 nM; 72 h.
Procedure, shortened: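 Where an area under the curve appears, it was computed with the drc and PharmacoGx R packages from log-logistic fits. Those fits used four parameters. The underlying viability data came from CellTiter-Glo after 72 h, normalised to DMSO and 10 μM proteasome-inhibitor wells, with thawed, Ficoll-purified AML or CML patient mononuclear cells at 10,000 cells/well in RPMI 1640 with 10% FBS on 384-well plates pre-printed with 70 compounds at five tenfold concentrations (1–10,000 nM) in duplicate.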

Point of comparison: `C=C(C=NNC(=N)N)NNC(=N)N` [Mitoguazone], cell viability 50%. Against it:
- Cc1c(-c2ccc(-c3ccccc3F)cc2)nc2ccc(F)cc2c1C(=O)O [Brequinar] — higher, 78%
- O=C1O/C(=C/Br)CCC1c1cccc2ccccc12 (centres undefined) [Bromoenol Lactone] — higher, 70%
- Nc1nc(Cl)nc2c1ncn2[C@H]1C[C@H](O)[C@@H](CO)O1 [Cladribine] — lower, 12.6%
- N#CC(C#N)=NNc1ccc(OC(F)(F)F)cc1 [FCCP] — higher, 82.1%
- O=C1c2cc([N+](=O)[O-])ccc2-n2c1nc1ccccc1c2=O [GNF-Pf-3777] — higher, 88.4%
- O=C(O)Cn1nnc(-c2cc(N3CCC(Oc4cc(F)ccc4Br)CC3)no2)n1 [MK-8245] — higher, 94.8%
- COc1cc(/C=C/C(=O)N2CCC=CC2=O)cc(OC)c1OC [Piperlongumine] — higher, 79.2%
- C=C(C)[C@H]1Cc2c(ccc3c2O[C@@H]2COc4cc(OC)c(OC)cc4[C@@H]2C3=O)O1 [Rotenone] — higher, 55.6%
- Oc1ccc(Nc2nc(-c3ccc(Cl)cc3)cs2)cc1 [SKI II] — higher, 84.5%
- CC[C@@]1(O)C(=O)OCc2c1cc1n(c2=O)Cc2cc3c(CN(C)C)c(O)ccc3nc2-1 [Topotecan] — higher, 93.5%

Same assay, conditions: 1000 nM; 72 h

Point of comparison: `COc1cc(/C=C/C(=O)N2CCC=CC2=O)cc(OC)c1OC` [Piperlongumine], cell viability 77.1%. Against it:
- O=C(C1CC1)N1CC[C@@H](C=C2NNC(=O)N2c2ccc(-c3ccc4occc4c3)cc2)C1 — higher, 92.2%
- C[C@H](NC(=O)c1sccc1OCc1ccc(Cl)cc1)c1ccccc1 — higher, > 100%
- O=C(O)C1=CC(=C(c2ccc(O)c(C(=O)O)c2)c2ccc(O)c(C(=O)O)c2)C=CC1=O [Aurintricarboxylic acid] — higher, 94.2%
- COC(=O)[C@]12CCC(C)(C)C[C@H]1[C@H]1C(=O)C=C3[C@@]4(C)C=C(C#N)C(=O)C(C)(C)[C@@H]4CC[C@@]3(C)[C@]1(C)CC2 [Bardoxolone methyl] — lower, 9.52%
- Cc1c(-c2ccc(-c3ccccc3F)cc2)nc2ccc(F)cc2c1C(=O)O [Brequinar] — higher, 97.6%
- O=C1O/C(=C/Br)CCC1c1cccc2ccccc12 (centres undefined) [Bromoenol Lactone] — higher, 81.3%
- Nc1nc(Cl)nc2c1ncn2[C@H]1C[C@H](O)[C@@H](CO)O1 [Cladribine] — lower, 3.65%
- N#CC(C#N)=NNc1ccc(OC(F)(F)F)cc1 [FCCP] — higher, 89.1%
- O=C1c2cc([N+](=O)[O-])ccc2-n2c1nc1ccccc1c2=O [GNF-Pf-3777] — higher, 84%
- O=C(O)Cn1nnc(-c2cc(N3CCC(Oc4cc(F)ccc4Br)CC3)no2)n1 [MK-8245] — higher, 91.6%
- C=C(C=NNC(=N)N)NNC(=N)N [Mitoguazone] — higher, 99.8%
- C=C(C)[C@H]1Cc2c(ccc3c2O[C@@H]2COc4cc(OC)c(OC)cc4[C@@H]2C3=O)O1 [Rotenone] — lower, 36.8%
- Oc1ccc(Nc2nc(-c3ccc(Cl)cc3)cs2)cc1 [SKI II] — higher, 80%
- CC[C@@]1(O)C(=O)OCc2c1cc1n(c2=O)Cc2cc3c(CN(C)C)c(O)ccc3nc2-1 [Topotecan] — higher, 87.2%

Same assay, conditions: 10000 nM; 72 h

Point of comparison: `N#CC(C#N)=NNc1ccc(OC(F)(F)F)cc1` [FCCP], cell viability 3.73%. Against it:
- O=C(C1CC1)N1CC[C@@H](C=C2NNC(=O)N2c2ccc(-c3ccc4occc4c3)cc2)C1 — higher, 73.2%
- C[C@H](NC(=O)c1sccc1OCc1ccc(Cl)cc1)c1ccccc1 — higher, 61%
- O=C(O)C1=CC(=C(c2ccc(O)c(C(=O)O)c2)c2ccc(O)c(C(=O)O)c2)C=CC1=O [Aurintricarboxylic acid] — higher, 79.4%
- COC(=O)[C@]12CCC(C)(C)C[C@H]1[C@H]1C(=O)C=C3[C@@]4(C)C=C(C#N)C(=O)C(C)(C)[C@@H]4CC[C@@]3(C)[C@]1(C)CC2 [Bardoxolone methyl] — higher, 61.5%
- Cc1c(-c2ccc(-c3ccccc3F)cc2)nc2ccc(F)cc2c1C(=O)O [Brequinar] — higher, 88.4%
- O=C1O/C(=C/Br)CCC1c1cccc2ccccc12 (centres undefined) [Bromoenol Lactone] — higher, 30%
- Nc1nc(Cl)nc2c1ncn2[C@H]1C[C@H](O)[C@@H](CO)O1 [Cladribine] — lower, 3.19%
- O=C1c2cc([N+](=O)[O-])ccc2-n2c1nc1ccccc1c2=O [GNF-Pf-3777] — higher, 64.9%
- O=C(O)Cn1nnc(-c2cc(N3CCC(Oc4cc(F)ccc4Br)CC3)no2)n1 [MK-8245] — higher, > 100%
- C=C(C=NNC(=N)N)NNC(=N)N [Mitoguazone] — higher, 94.2%
- COc1cc(/C=C/C(=O)N2CCC=CC2=O)cc(OC)c1OC [Piperlongumine] — lower, 0.503%
- C=C(C)[C@H]1Cc2c(ccc3c2O[C@@H]2COc4cc(OC)c(OC)cc4[C@@H]2C3=O)O1 [Rotenone] — higher, 3.96%
- Oc1ccc(Nc2nc(-c3ccc(Cl)cc3)cs2)cc1 [SKI II] — higher, 42.6%
- CC[C@@]1(O)C(=O)OCc2c1cc1n(c2=O)Cc2cc3c(CN(C)C)c(O)ccc3nc2-1 [Topotecan] — higher, 27.3%

These molecules were tested on MV4-11 (assay: cell viability (% survival relative to DMSO control); higher = less cytotoxic). Details: drug1 concentration 5 nM; drug2 concentration 5 nM; 72 h.
Procedure: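 8x8 drug-combination matrices (0–5000 nM; rosiglitazone and lestaurtinib 0–1000 nM) were run in MV4-11 cells for 72 h with CellTiter-Glo read-out. Survival is normalised to DMSO and 10 µM bortezomib and clipped at 100%.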

Point of comparison: `O=C(C1CC1)N1CC[C@@H](C=C2NNC(=O)N2c2ccc(-c3ccc4occc4c3)cc2)C1` + O=C(c1c2ccccc2cc2ccccc12)N1CCC(N2CCC[C@@H](C(=O)N3CCOCC3)C2)CC1 [CP-640186], cell viability 95.4%. Against it:
- O=C(C1CC1)N1CC[C@@H](C=C2NNC(=O)N2c2ccc(-c3ccc4occc4c3)cc2)C1 + CS(=O)(=O)N1CCN(Cc2cc3nc(-c4cccc5[nH]ncc45)nc(N4CCOCC4)c3s2)CC1 [Pictilisib] — higher, > 100%
- O=C(C1CC1)N1CC[C@@H](C=C2NNC(=O)N2c2ccc(-c3ccc4occc4c3)cc2)C1 + C[C@H](NC(=O)c1sccc1OCc1ccc(Cl)cc1)c1ccccc1 [as1949490] — higher, > 100%
- CC(C)c1onc(-c2c(Cl)cccc2Cl)c1COc1ccc(/C=C/c2cccc(C(=O)O)c2)c(Cl)c1 [GW4064] + Cn1cc(-c2ccncc2)c(-c2ccc(OCc3ccc4ccccc4n3)cc2)n1 [PF-02545920] — lower, 90.6%

Same assay, conditions: drug1 concentration 5 nM; drug2 concentration 10 nM; 72 h

Point of comparison: `O=C(C1CC1)N1CC[C@@H](C=C2NNC(=O)N2c2ccc(-c3ccc4occc4c3)cc2)C1` + O=C(c1c2ccccc2cc2ccccc12)N1CCC(N2CCC[C@@H](C(=O)N3CCOCC3)C2)CC1 [CP-640186], cell viability 89.8%. Against it:
- O=C(C1CC1)N1CC[C@@H](C=C2NNC(=O)N2c2ccc(-c3ccc4occc4c3)cc2)C1 + CS(=O)(=O)N1CCN(Cc2cc3nc(-c4cccc5[nH]ncc45)nc(N4CCOCC4)c3s2)CC1 [Pictilisib] — higher, > 100%
- O=C(C1CC1)N1CC[C@@H](C=C2NNC(=O)N2c2ccc(-c3ccc4occc4c3)cc2)C1 + C[C@H](NC(=O)c1sccc1OCc1ccc(Cl)cc1)c1ccccc1 [as1949490] — higher, > 100%
- CC(C)c1onc(-c2c(Cl)cccc2Cl)c1COc1ccc(/C=C/c2cccc(C(=O)O)c2)c(Cl)c1 [GW4064] + Cn1cc(-c2ccncc2)c(-c2ccc(OCc3ccc4ccccc4n3)cc2)n1 [PF-02545920] — higher, > 100%

Same assay, conditions: drug1 concentration 5 nM; drug2 concentration 50 nM; 72 h

`O=C(C1CC1)N1CC[C@@H](C=C2NNC(=O)N2c2ccc(-c3ccc4occc4c3)cc2)C1` + CS(=O)(=O)N1CCN(Cc2cc3nc(-c4cccc5[nH]ncc45)nc(N4CCOCC4)c3s2)CC1 [Pictilisib] and `CC(C)c1onc(-c2c(Cl)cccc2Cl)c1COc1ccc(/C=C/c2cccc(C(=O)O)c2)c(Cl)c1` [GW4064] + Cn1cc(-c2ccncc2)c(-c2ccc(OCc3ccc4ccccc4n3)cc2)n1 [PF-02545920] cannot be ordered by cell viability: over 100% for the first, over 100% for the second.

With `O=C(C1CC1)N1CC[C@@H](C=C2NNC(=O)N2c2ccc(-c3ccc4occc4c3)cc2)C1` + C[C@H](NC(=O)c1sccc1OCc1ccc(Cl)cc1)c1ccccc1 [as1949490] the cell viability was over 100%.
In the case of `O=C(C1CC1)N1CC[C@@H](C=C2NNC(=O)N2c2ccc(-c3ccc4occc4c3)cc2)C1` + O=C(c1c2ccccc2cc2ccccc12)N1CCC(N2CCC[C@@H](C(=O)N3CCOCC3)C2)CC1 [CP-640186], the cell viability was over 100%.

Same assay, conditions: drug1 concentration 5 nM; drug2 concentration 100 nM; 72 h

Point of comparison: `O=C(C1CC1)N1CC[C@@H](C=C2NNC(=O)N2c2ccc(-c3ccc4occc4c3)cc2)C1` + CS(=O)(=O)N1CCN(Cc2cc3nc(-c4cccc5[nH]ncc45)nc(N4CCOCC4)c3s2)CC1 [Pictilisib], cell viability 89.5%. Against it:
- O=C(C1CC1)N1CC[C@@H](C=C2NNC(=O)N2c2ccc(-c3ccc4occc4c3)cc2)C1 + C[C@H](NC(=O)c1sccc1OCc1ccc(Cl)cc1)c1ccccc1 [as1949490] — higher, > 100%
- O=C(C1CC1)N1CC[C@@H](C=C2NNC(=O)N2c2ccc(-c3ccc4occc4c3)cc2)C1 + O=C(c1c2ccccc2cc2ccccc12)N1CCC(N2CCC[C@@H](C(=O)N3CCOCC3)C2)CC1 [CP-640186] — higher, 98.3%
- CC(C)c1onc(-c2c(Cl)cccc2Cl)c1COc1ccc(/C=C/c2cccc(C(=O)O)c2)c(Cl)c1 [GW4064] + Cn1cc(-c2ccncc2)c(-c2ccc(OCc3ccc4ccccc4n3)cc2)n1 [PF-02545920] — higher, 97.4%

Same assay, conditions: drug1 concentration 5 nM; drug2 concentration 500 nM; 72 h

`O=C(C1CC1)N1CC[C@@H](C=C2NNC(=O)N2c2ccc(-c3ccc4occc4c3)cc2)C1` + CS(=O)(=O)N1CCN(Cc2cc3nc(-c4cccc5[nH]ncc45)nc(N4CCOCC4)c3s2)CC1 [Pictilisib] gave a cell viability of over 100%.
For `O=C(C1CC1)N1CC[C@@H](C=C2NNC(=O)N2c2ccc(-c3ccc4occc4c3)cc2)C1` + C[C@H](NC(=O)c1sccc1OCc1ccc(Cl)cc1)c1ccccc1 [as1949490], the cell viability was over 100%.
